Several values for one entry are separate records, joined by “and”; a condition that tells them apart may be missing. Equal entries are not always repeated. Inconclusive results and toxic doses are left out. Cut-off read from the data, not from the text of the source: active = T/C of 150% or more; inactive = T/C below 125%.
Test system: L1210 leukemia ip in BDF1 mice, survival T/C
Test: NCI In Vivo Anticancer Drug Screen. Data for tumor model L1210 Leukemia (intraperitoneal) in B6D2F1 (BDF1) mice
Conditions: endpoint: mean survival time, higher = longer survival
In short: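 Read-out is survival time, reported as the treated-group measurement over the vehicle-control measurement.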

[1] = dose: 100.0 mg/kg/injection, schedule: Q01DX001 (ip), vehicle: saline
[2] = dose: 200.0 mg/kg/injection, schedule: Q01DX001 (ip), vehicle: saline
[3] = dose: 100.0 mg/kg/injection, schedule: Q01DX009 (ip), vehicle: Klucel (hydroxypropylcellulose) (HPC)
[4] = dose: 100.0 mg/kg/injection, schedule: Q04DX003 (ip), vehicle: Klucel (hydroxypropylcellulose) (HPC)
[5] = dose: 200.0 mg/kg/injection, schedule: Q04DX003 (ip), vehicle: Klucel (hydroxypropylcellulose) (HPC)
[6] = dose: 400.0 mg/kg/injection, schedule: Q04DX003 (ip), vehicle: Klucel (hydroxypropylcellulose) (HPC)
[7] = dose: 200.0 mg/kg/injection, schedule: Q01DX009 (ip), vehicle: Klucel (hydroxypropylcellulose) (HPC)
[8] = dose: 400.0 mg/kg/injection, schedule: Q01DX009 (ip), vehicle: Klucel (hydroxypropylcellulose) (HPC)

Measured: T/C

N#C[C@@H]1C2C=CC(CC2)[C@H]1C#N
inactive: dose: 0.5 mg/kg/injection, schedule: Q03HX024 (ip), vehicle: gum acacia 106 % of control | dose: 0.7 mg/kg/injection, schedule: Q03HX024 (ip), vehicle: gum acacia 106 % of control | dose: 1.1 mg/kg/injection, schedule: Q03HX024 (ip), vehicle: gum acacia 106 % of control | dose: 1.6 mg/kg/injection, schedule: Q03HX024 (ip), vehicle: gum acacia 102 % of control | dose: 2.4 mg/kg/injection, schedule: Q01DX009 (ip), vehicle: gum acacia 104 % of control | dose: 2.4 mg/kg/injection, schedule: Q03HX024 (ip), vehicle: gum acacia 103 % of control | dose: 3.6 mg/kg/injection, schedule: Q01DX009 (ip), vehicle: gum acacia 102 % of control | dose: 5.0 mg/kg/injection, schedule: Q01DX001 (ip), vehicle: gum acacia 103 % of control | dose: 5.0 mg/kg/injection, schedule: Q04DX003 (ip), vehicle: gum acacia 97 % of control | dose: 7.0 mg/kg/injection, schedule: Q01DX001 (ip), vehicle: gum acacia 101 % of control | dose: 7.0 mg/kg/injection, schedule: Q04DX003 (ip), vehicle: gum acacia 97 % of control | dose: 11.0 mg/kg/injection, schedule: Q01DX001 (ip), vehicle: gum acacia 100 % of control | dose: 11.0 mg/kg/injection, schedule: Q04DX003 (ip), vehicle: gum acacia 92 % of control

CSc1nc(SC)c2c(ncn2C2OC(CO)C(O)C2O)n1 (stereo unspecified)
inactive: dose: 50.0 mg/kg/injection, schedule: Q01DX001 (ip), vehicle: saline 111 % of control | [1] 102 % of control | [2] 104 % of control

COc1ccc(-c2ccc(OC)c(OC)c2OC)c(N)c1
inactive: dose: 65.0 mg/kg/injection, schedule: Q01DX Z (ip), vehicle: carboxymethylcellulose (CMC) 93 % of control and 121 % of control | dose: 125.0 mg/kg/injection, schedule: Q01DX Z (ip), vehicle: carboxymethylcellulose (CMC) 94 % of control and 100 % of control | dose: 250.0 mg/kg/injection, schedule: Q01DX Z (ip), vehicle: carboxymethylcellulose (CMC) 93 % of control and 86 % of control | dose: 500.0 mg/kg/injection, schedule: Q01DX Z (ip), vehicle: carboxymethylcellulose (CMC) 112 % of control

COC(C)CSP(SCC(C)OC)SCC(C)OC (stereo unspecified)
inactive: dose: 25.0 mg/kg/injection, schedule: Q01DX009 (ip), vehicle: Klucel (hydroxypropylcellulose) (HPC) 96 % of control | dose: 50.0 mg/kg/injection, schedule: Q01DX009 (ip), vehicle: Klucel (hydroxypropylcellulose) (HPC) 99 % of control | [3] 99 % of control

COc1cc2c(cc1OC(C)=O)CCCCC2=O
inactive: [1] 101 % of control | [2] 103 % of control | dose: 400.0 mg/kg/injection, schedule: Q01DX001 (ip), vehicle: saline 101 % of control

O=c1[nH]cc(CN(CCO)CCO)c(=O)[nH]1
inactive: dose: 100.0 mg/kg/injection, schedule: Q01DX Z (ip), vehicle: saline 101 % of control | dose: 200.0 mg/kg/injection, schedule: Q01DX Z (ip), vehicle: saline 103 % of control

CCCCCCCCCCCCCCCCN(C(C)C)S(=O)(=O)c1ccc(Cl)c(N)c1
inactive: dose: 100.0 mg/kg/injection, schedule: Q01DX009 (ip), vehicle: saline 89 % of control | [4] 98 % of control | dose: 200.0 mg/kg/injection, schedule: Q01DX009 (ip), vehicle: saline 89 % of control | [5] 96 % of control | dose: 400.0 mg/kg/injection, schedule: Q01DX009 (ip), vehicle: saline 102 % of control | [6] 89 % of control

CC(=O)Nc1nnc(SC(C)=O)s1
inactive: [3] 95 % of control and 90 % of control | [7] 95 % of control | [8] 93 % of control and 94 % of control

CCCCN(C=S)CCCC
inactive: dose: 25.0 mg/kg/injection, schedule: Q04DX002 (ip), vehicle: saline with Tween-80 98 % of control | dose: 50.0 mg/kg/injection, schedule: Q04DX002 (ip), vehicle: saline with Tween-80 95 % of control | dose: 100.0 mg/kg/injection, schedule: Q04DX002 (ip), vehicle: saline with Tween-80 102 % of control | dose: 100.0 mg/kg/injection, schedule: Q04DX003 (ip), vehicle: saline with Tween-80 92 % of control

C[C@]12CCC(=O)C=C1CC[C@H]1[C@@H]3CCC(=O)[C@@]3(C)CC(=O)[C@@]12S
inactive: dose: 100.0 mg/kg/injection, schedule: Q01DX001 (ip), vehicle: steriod suspending solution 87 % of control | dose: 100.0 mg/kg/injection, schedule: Q04DX003 (ip), vehicle: steriod suspending solution 93 % of control | dose: 200.0 mg/kg/injection, schedule: Q01DX001 (ip), vehicle: steriod suspending solution 93 % of control | dose: 200.0 mg/kg/injection, schedule: Q04DX003 (ip), vehicle: steriod suspending solution 108 % of control | dose: 400.0 mg/kg/injection, schedule: Q01DX001 (ip), vehicle: steriod suspending solution 97 % of control | dose: 400.0 mg/kg/injection, schedule: Q04DX003 (ip), vehicle: steriod suspending solution 95 % of control

Cc1cc(=O)n2c3c(cc(C#N)cc13)OC2
inactive: [3] 90 % of control | dose: 100.0 mg/kg/injection, schedule: Q04DX002 (ip), vehicle: Klucel (hydroxypropylcellulose) (HPC) 96 % of control | [7] 98 % of control | [8] 95 % of control | dose: 400.0 mg/kg/injection, schedule: Q04DX002 (ip), vehicle: Klucel (hydroxypropylcellulose) (HPC) 89 % of control

O=C(O)CC1CCCCC1c1ccccc1 (stereo unspecified)
inactive: [3] 98 % of control | [4] 96 % of control | [7] 100 % of control | [5] 106 % of control | [8] 87 % of control | [6] 95 % of control

Cc1cc(Br)c(I)c([N+](=O)[O-])c1
inactive: dose: 37.5 mg/kg/injection, schedule: Q04DX003 (ip), vehicle: saline with Tween-80 104 % of control | dose: 75.0 mg/kg/injection, schedule: Q04DX003 (ip), vehicle: saline with Tween-80 95 % of control | dose: 150.0 mg/kg/injection, schedule: Q04DX003 (ip), vehicle: saline with Tween-80 102 % of control

O=C(NC(CSC(=O)c1ccccc1)C(=O)O)OCc1ccccc1 (stereo unspecified)
inactive: [3] 104 % of control | [4] 101 % of control | [7] 93 % of control | [5] 95 % of control | [6] 95 % of control

[N-]=[N+]=CC(=O)CCC(=O)C=[N+]=[N-]
inactive: dose: 0.75 mg/kg/injection, schedule: Q01DX009 (ip), vehicle: other 98 % of control | dose: 1.5 mg/kg/injection, schedule: Q01DX009 (ip), vehicle: other 116 % of control | dose: 6.0 mg/kg/injection, schedule: Q01DX009 (ip), vehicle: other 116 % of control

CCOC(=O)C1CC(O)CN1 (stereo unspecified)
inactive: dose: 100.0 mg/kg/injection, schedule: Q04DX003 (ip), vehicle: saline sonified 97 % of control | dose: 200.0 mg/kg/injection, schedule: Q04DX003 (ip), vehicle: saline sonified 100 % of control | dose: 400.0 mg/kg/injection, schedule: Q04DX003 (ip), vehicle: saline sonified 87 % of control

C=C(Cl)COC1CCS(=O)(=O)C1 (stereo unspecified)
inactive: dose: 6.25 mg/kg/injection, schedule: Q01DX009 (ip), vehicle: saline with Tween-80 94 % of control and 101 % of control | dose: 12.5 mg/kg/injection, schedule: Q01DX009 (ip), vehicle: saline with Tween-80 95 % of control and 97 % of control | dose: 25.0 mg/kg/injection, schedule: Q01DX009 (ip), vehicle: saline with Tween-80 100 % of control and 122 % of control | dose: 50.0 mg/kg/injection, schedule: Q01DX009 (ip), vehicle: saline with Tween-80 97 % of control
